Square brackets hold non-standard residues; d marks the D form. Peptide text beside a SMILES is read from it. * marks the point of attachment. Fmoc = O=C(OCC1c2ccccc2-c2ccccc21)*; Aib = CC(C)(N)C(=O)O
Assay: Storage stability studies of the dipeptide TFA salt
Type: physicochemical
Description: Fmoc-His(Trt)-Aib-OH (1 moleq., starting material) was suspended in DCM (1.5 mL/g) and TIPS (1.7 moleq.) was added. Cooled (0-10° C.) TFA (3 mL/g) was added and the mixture was stirred at ambient temperature until the reaction was completed (High-performance liquid chromatography (HPLC) conversion). DME (1 mL/g starting material) and TBME (11 mL/g starting material) was added leading to an increase in temperature. The temperature was slowly allowed to return to room temperature (rt) resulting in precipitation of a white solid. The mixture was stirred for an additional 3 hr and filtered. The precipitate was washed twice with TBME (3 mL/g starting material) and dried overnight in vacuo affording the de-tritylated dipeptide as TFA-salt in 90% yield.

stability (storage) (freeze (<−15° C.±5° C.)): more than 24 month | stability (storage) (fridge (5° C.±3° C.)): more than 24 month | stability (storage) (room temperature (20° C.±3° C.)): more than 24 month
Structure (SMILES): CC(C)(NC(=O)[C@H](Cc1c[nH]cn1)NC(=O)OCC1c2ccccc2-c2ccccc21)C(=O)O [Example 1, 2-[(S)-2-(9H-Fluoren-9-ylmethoxycarbonylamino)-3-(1H-imidazol-4-yl)-propanoylamino]-2-methyl-propanoic Acid Trifluoracatate] (Fmoc-His-[Aib]-OH)
